The text below walks through data of patent US8937065B2, “Compositions and methods for modulating a kinase” (Clevexel Pharma, priority 2011, dated 2015).

The test system of data set [1] is JAK3 pathway. In words: Cell based JAK3 pathway inhibition (STAT6-bla RA1 cells, IL-4 activated). On the procedure:
32 μL of the cell suspension (25,000 cells) was added to each well of a 384-well TC-Treated assay plate. Cells in Assay Media were incubated for 16-24 hours in the plate at 37° C./5% CO2 in a humidified incubator. 4 μL of a 10× serial dilution of a compound of the invention was added to appropriate wells of the plate and pre-incubated at 37° C./5% CO2 in a humidified incubator with cells for 30 minutes. 4 μL of 10× control activator IL-4 at the predetermined EC80 concentration was added to wells containing the compound of the invention. The plate was incubated for 5 hours at 37° C./5% CO2 in a humidified incubator. 8 μL of 1 μM Substrate Loading Solution was added to each well and the plate was incubated for 2 hours at room temperature. The plate was read on a fluorescence plate reader.

For data set [2], the system named is IL-2-stimulated STAT5 activity in CTLL-2 cells. In words: IL-2-stimulated STAT5 activity in CTLL-2 cells (Irf1-bla CTLL-2). The class given is cell-based. The following applies: Mus musculus, mCTLL-2, IL-2 stimulated, read-out: IC50 T cells mechanism-based: mCTLL-2 IL-2 Stimulated STAT5 activity. On the procedure: Mechanism-based inhibition assays using compound 7A (Table 1) were performed using GeneBLAzer® Technology (Invitrogen Corporation), according to manufacturer specifications. Briefly, GeneBLAzer® Technology uses a mammalian-optimized Beta-lactamase reporter gene (bla) combined with a FRET-enabled substrate to provide reliable and sensitive detection in intact cells. Cells were loaded with an engineered fluorescent substrate containing two fluorophores, coumarin and fluorescein. Without bla expression, the substrate molecule remains intact. In this state, excitation of the coumarin results in fluorescence resonance energy transfer to the fluorescein moiety and emission of green light. […] Excitation of the coumarin in the presence of Beta-lactamase activity results in a blue fluorescence signal. […]
An activator assay screen was run to obtain the EC80 concentration of the known activator to add in step 3. • 1. […] 4 μL of the EC80 concentration of activator, as determined in an Activator assay, was added to all wells containing compound and known inhibitor to bring the final assay volume to 40 μL. • 4. […] The assay plate was read on a fluorescence plate reader (Tecan Safire) and the data is analyzed. […]
Irf1-bla CTLL-2 cells were thawed and prepared as described above for the Activator Screen. […] The plate was read on a fluorescence plate reader.

For data set [3], the system named is Namalwa cells. In words: Proliferation of Namalwa cells (Cell Titer-Glo). The following applies: Homo sapiens, B-cell, outcome-based, read-out: IC50 Proliferation Namalwa cells (Burkitt's Lymphoma). In general terms: ATP-based viability assays read luminescence as a measure of living cells.
The test system of data set [4] is CYP. Description: CYP inhibition. Format: in vitro ADME.
Data set [5] deals with T1, JAK3 (Homo sapiens, UniProt P52333).
T1 construct: purchased Invitrogen, Madison, Wis
T1 sequence (P52333 1-1124): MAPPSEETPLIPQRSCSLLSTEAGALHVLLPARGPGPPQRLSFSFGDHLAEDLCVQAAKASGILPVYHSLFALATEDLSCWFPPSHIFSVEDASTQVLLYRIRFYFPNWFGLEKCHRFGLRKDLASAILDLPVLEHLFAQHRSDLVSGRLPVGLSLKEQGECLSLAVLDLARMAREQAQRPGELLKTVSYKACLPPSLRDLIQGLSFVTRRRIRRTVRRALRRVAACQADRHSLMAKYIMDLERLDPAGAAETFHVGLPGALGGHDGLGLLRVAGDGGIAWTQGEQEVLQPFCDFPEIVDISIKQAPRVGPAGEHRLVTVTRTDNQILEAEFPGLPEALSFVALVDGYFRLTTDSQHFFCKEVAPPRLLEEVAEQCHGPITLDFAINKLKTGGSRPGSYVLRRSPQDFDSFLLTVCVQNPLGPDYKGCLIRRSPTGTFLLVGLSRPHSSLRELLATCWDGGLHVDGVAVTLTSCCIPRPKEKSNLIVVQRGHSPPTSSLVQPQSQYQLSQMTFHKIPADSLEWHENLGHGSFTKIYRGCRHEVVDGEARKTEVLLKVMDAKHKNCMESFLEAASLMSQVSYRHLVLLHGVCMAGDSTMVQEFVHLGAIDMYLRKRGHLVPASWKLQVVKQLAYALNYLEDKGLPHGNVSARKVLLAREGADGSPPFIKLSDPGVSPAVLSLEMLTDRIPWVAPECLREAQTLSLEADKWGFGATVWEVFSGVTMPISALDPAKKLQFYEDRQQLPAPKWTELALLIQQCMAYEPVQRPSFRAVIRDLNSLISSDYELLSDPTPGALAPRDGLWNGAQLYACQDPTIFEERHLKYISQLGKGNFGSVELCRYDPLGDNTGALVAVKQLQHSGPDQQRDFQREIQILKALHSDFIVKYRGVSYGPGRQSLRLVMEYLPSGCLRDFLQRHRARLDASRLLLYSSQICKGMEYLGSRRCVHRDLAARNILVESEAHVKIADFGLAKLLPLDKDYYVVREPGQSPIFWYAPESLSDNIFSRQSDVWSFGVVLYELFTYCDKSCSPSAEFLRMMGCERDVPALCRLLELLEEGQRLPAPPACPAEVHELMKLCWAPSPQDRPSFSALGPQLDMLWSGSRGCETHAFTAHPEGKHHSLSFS
In words: JAK3 enzymatic activity assay (Z'-LYTE Biochemical Kinase Assay, 2 hr preincubation at 4° C.). The following applies: cell-free.

On to `O=C(CN1CCOCC1)Nc1cccc(-c2nc(-c3c[nH]c(C(=O)N4CCCC4)c3)cs2)c1` [7A, 2-morpholino-N-(3-(4-(5-(pyrrolidine-1-carbonyl)-1H-pyrrol-3-yl)thiazol-2-yl)phenyl)acetamide], for which the IC50 in data set [1] (STAT6-bla RA1 cells, IL-4 at EC80) is 110 to 1000 nM; in data set [2], 6.2 µM; in data set [3], 28 µM. Besides, the Emax in data set [1] (cell based JAK3 pathway inhibition, maximal inhibition, read-out: Max % Inh) stood at 75%. Besides, the CYP inhibition in data set [4] was greater than 10. Also, the Ki (usually the dissociation constant of the complex between target and ligand, obtained from inhibition or displacement) in data set [5] stood at 0.795 µM.
